Laboratory results taken from patent US20230190778A1, “COMPOSITION COMPRISING GLUCOSE OLIGOSACCHARIDE AND PROCESS FOR MAKING THE SAME AND USE THEREOF” (CARGILL, INCORPORATED, priority 2020, published 2023).

Legend:
[1] = test system: chicken macrophage-like cell line HD11; test: Nitric oxide (NO)-production assay (Griess); assay type: cell-based; details: HD11 cells
Description: A nitric oxide production assay using chicken macrophage-like cell line HD11, as also described by Biggelaar et al., Vaccines 2020, 8(2), 332, was carried out to compare immune responses in terms of NO production of the glucose-oligosaccharide according to Example 1 and a prior art glucose-oligosaccharide fibre according to Example 2.
To obtain a standard NO calibration curve, the Griess assay was used as described by Biggelaar et al.
On day 1 HD11 cell were seeded, day 2 compounds were added at different concentrations i.e. at 10 ppm, 50 ppm and 100 ppm. […] Compounds were tested in triplicate per NO assay i.e. in total 3 series of NO assays were performed per compound per concentration.
(NB: Negative output implies zero NO production. Negative values arise due to the calculation based on the standard NO calibration curve. Negative output can be seen as 0 NO production.)

[2] = test system: developing embryos (unhatched chicks); test: In ovo trial (hatchability / safety); assay type: in vivo, chicken; details: 1 mL injected in ovo at 17 days of incubation; at up to just 0.006 mg; FIG. 4
Description: The trials were thus carried out to indicate safety of the compound according to the invention in animals In this case, a comparison was made with Example 3, a commercially available conjugated linoleic acid (CLA). It is known that CLA may modulate the immune system.
480 eggs we incubated under standard conditions. They were divided unto 8 groups of 10 eggs replicated 6 times. At 17 days of incubation eggs were injected with 1 mL of the respective solution of Example 1 and Example 3 at increasing concentrations. The intention was to deliver into the amniotic fluid to be orally consumed and digested by the developing embryos according to the method described by (Uni et al., 2005, Poult Sci 84:764-770). At day of hatch, hatched chicks as well as remaining non-hatched eggs were counted and % hatchability was calculated to indicate safety of injected materials by not causing mortality.

Substance | NO production (positive control) [1] | hatchability [2]
Lipopolysaccharide [LPS] | high NO production | –
conjugated linoleic acid [Example 3] | – | Not all of the chicks hatched
